# Experimental data published in the supplement of paper PMC10307832.
# Key:
# Assay in all cases: relative viability (nuclei count vs DMSO), 5 days (fraction); higher = more cells survive
# [1] = compound: C1CC1C(=O)NC2=NNC3=C2C=CC(=C3)C4=CC(=CC=C4)C(=O)NC5CC5 [XMD13-2] + CC(C)C[C@H](NC(=O)[C@H](Cc1ccccc1)NC(=O)c1cnccn1)B(O)O [Bortezomib] (partner 0.002 µM)
# How it was run: (§1)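 Each reported value is a median over duplicate plates. It expresses relative viability: treated-well nuclei count divided by vehicle-well nuclei count. Lung cancer cell lines in 1536-well plates were dosed by pin tool a day after seeding, alone with one drug or with a fixed anchor-drug dose plus five library-drug doses (not always all listed) in √10 steps, and nuclei were counted after 5 days.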
# [2] = compound: Cc1nc(Nc2ncc(C(=O)Nc3c(C)cccc3Cl)s2)cc(N2CCN(CCO)CC2)n1 [Dasatinib] + CS(=O)(=O)CCNCc1ccc(-c2ccc3ncnc(Nc4ccc(OCc5cccc(F)c5)c(Cl)c4)c3c2)o1 [Lapatinib] (partner 2 µM)
# How it was run: as §1
# [3] = compound: C1CC1C(=O)NC2=NNC3=C2C=CC(=C3)C4=CC(=CC=C4)C(=O)NC5CC5 [XMD13-2] + CC1(C)CCC(c2ccc(Cl)cc2)=C(CN2CCN(c3ccc(C(=O)NS(=O)(=O)c4ccc(N[C@H](CCN5CCOCC5)CSc5ccccc5)c(S(=O)(=O)C(F)(F)F)c4)cc3)CC2)C1 [Navitoclax] (partner 0.5 µM)
# How it was run: as §1
# [4] = compound: Cc1ccc(C(=O)Nc2cccc(C(F)(F)F)c2)cc1Nc1cncc(C(N)=O)c1 [ALW-II-49-7] + Cc1cc(Nc2cc(N3CCN(C)CC3)nc(Sc3ccc(NC(=O)C4CC4)cc3)n2)n[nH]1 [Tozasertib] (partner 0.1 µM)
# How it was run: as §1
Cell Line,relative viability ([1]; first compound 0.05 µM),relative viability ([1]; first compound 0.1581 µM),relative viability ([1]; first compound 0.5 µM),relative viability ([1]; first compound 1.581 µM),relative viability ([1]; first compound 5 µM),relative viability ([2]; first compound 0.005 µM),relative viability ([2]; first compound 0.01581 µM),relative viability ([2]; first compound 0.05 µM),relative viability ([2]; first compound 0.1581 µM),relative viability ([2]; first compound 0.5 µM),relative viability ([3]; first compound 0.05 µM),relative viability ([3]; first compound 0.1581 µM),relative viability ([3]; first compound 0.5 µM),relative viability ([3]; first compound 1.581 µM),relative viability ([3]; first compound 5 µM),relative viability ([4]; first compound 0.08 µM),relative viability ([4]; first compound 0.253 µM),relative viability ([4]; first compound 0.8 µM),relative viability ([4]; first compound 2.53 µM),relative viability ([4]; first compound 8 µM)
LOU-NH91,0.501,0.451,0.538,0.444,0.556,0.673,0.592,0.571,0.503,0.414,0.752,0.688,0.715,0.696,0.769,0.622,0.468,0.633,0.631,0.575
SW 900,,,,,,,,,,,,,,,,0.573,0.568,0.479,0.279,0.377
LCLC-103H,1.03,1.1,1.08,1.02,1.21,,,,,,,,,,,0.451,0.453,0.486,0.451,0.389
NCI-H1915,1.06,1.01,1.01,0.979,1.01,0.939,0.892,0.87,0.382,0.242,0.801,0.781,0.806,0.835,0.853,0.398,0.457,0.42,0.341,0.277
IA-LM,0.907,0.79,0.825,0.829,0.398,0.996,0.828,1.08,0.55,0.436,0.821,0.867,0.724,0.769,0.457,,,,,
NCI-H1734,1.35,0.954,0.887,0.729,0.768,1.02,0.755,0.894,0.508,0.531,1,0.883,0.881,0.8,0.741,0.263,0.278,0.255,0.24,0.232
SK-MES-1,,,,,,0.467,0.482,0.399,0.315,0.258,1.26,1.32,1.21,1.24,1.2,0.878,0.986,0.843,0.844,0.568
Calu-6,1,1.04,1.1,0.871,0.789,0.924,0.776,0.848,0.642,0.59,0.915,0.829,0.808,0.776,0.548,,,,,
NCI-H661,0.86,0.805,0.846,0.626,0.587,0.295,0.29,0.276,0.318,0.234,,,,,,0.388,0.369,0.341,0.362,0.337
NCI-H1395,,,,,,0.926,0.954,0.678,0.479,0.466,1.25,1.16,1.23,1.11,1.1,0.746,0.825,0.736,0.779,0.631
NCI-H1944,,,,,,0.598,0.736,0.577,0.334,0.268,1.08,1.05,1.08,1.11,1.17,0.234,0.249,0.251,0.246,0.254
NCI-H2342,,,,,,,,,,,,,,,,0.437,0.409,0.478,0.496,0.436
NCI-H1793,,,,,,0.587,0.46,0.349,0.622,0.58,0.48,0.394,0.485,0.426,0.509,0.366,0.301,0.338,0.296,0.321
NCI-H1299,1.02,1.05,1.05,1.05,1.11,0.971,0.971,1.1,0.529,0.299,1.04,1.03,1.06,1.03,1.09,,,,,
NCI-H522,,,,,,,,,,,,,,,,0.622,0.499,0.554,0.507,0.647
NCI-H1623,,,,,,,,,,,,,,,,0.339,0.402,0.395,0.396,0.579
NCI-H2170,,,,,,0.264,0.236,0.271,0.259,0.216,0.761,0.577,0.577,0.569,0.475,0.724,0.817,0.73,0.618,0.767
NCI-H1648,,,,,,,,,,,,,,,,0.382,0.236,0.243,0.313,0.382
NCI-H1703,0.47,0.597,0.407,0.228,0.195,0.638,0.326,0.429,0.185,0.16,1.59,1.19,1.24,0.889,1.16,,,,,
ABC-1,0.331,0.319,0.261,0.289,0.296,0.993,0.896,1.38,0.872,0.693,,,,,,0.172,0.179,0.162,0.197,0.191
NCI-H650,0.932,0.757,0.983,0.683,0.993,0.471,0.907,0.723,0.555,0.387,,,,,,0.719,0.737,0.673,0.577,0.481
ChaGo-K-1,1.09,1.02,1.02,,0.911,,,,,,1.06,0.882,0.799,,0.942,0.248,0.238,0.22,0.212,0.2
LK-2,,,,,,0.772,0.612,0.412,0.313,0.283,1.19,0.843,0.905,0.957,0.738,,0.191,0.2,0.175,0.151
